These results are taken from publication PMC7614683, “A small molecule PI3Kα activator for cardioprotection and neuroregeneration” (Nature, 2023).

One test concerns A549 cells. As to the kind of experiment: pAKT S473 ELISA, A549. Type of test: cell-based, human. As to conditions: 15 min; 5-10 μM 1938. The method, then: A549 cells were seeded at 50,000 cells per well in 96-well plates in DMEM (10% FBS + 1% P/S). The next day cells were washed once with PBS before addition of serum-free DMEM for 24 h. On the day of treatment, cells were incubated in fresh serum-free DMEM prior to treatment. Compounds solubilised to 10 mM in DMSO were diluted 1:3 in an 8-point concentration response curve in DMSO. Concentration response curves were diluted in serum-free DMEM by transfer into intermediate plates using a BRAVO liquid handler (Agilent). Intermediate plates were then used to treat cell plates using the BRAVO liquid handler. […] Cell plates were treated for 15 min at 37°C, 5% CO2 before being washed with ice-cold PBS and lysed in lysis buffer […] Systems #895561) and freezing at -80°C. Levels of pAKT^S473 were determined using the phospho-AKT (S473) pan-specific Duoset IC ELISA (R&D Systems #DY[…]) in 96-well white high-binding plates (Corning #3922) according to manufacturer's instructions. Endpoint luminescence was measured using a Sense (Hidex) platereader. […] Data were transformed and EC50 data were determined by variable slope (4 parameters) non-linear regression using Prism 7 (Graphpad).
For orientation: In an ELISA, binding on a coated surface is turned into a signal by an enzyme label.

For another test, the target named is AAK1 (Homo sapiens, UniProt Q2M2I8). As to the kind of experiment: SelectScreen LanthaScreen Binding. As to conditions: 1000 nM. Put shortly:
(§1)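 A single compound concentration of 1 μM was profiled in the vendor's Adapta, Lantha and Z-LYTE kinase assays. In gel-based follow-ups with 200 μM compound, phosphorylation was resolved on Phos-tag SDS-PAGE and quantified by Coomassie. The ATM run used 1 mM ATP with GST-p53 for 30 min, and the mTORC1 run used 250 μM ATP with 4E-BP1 for 3 h.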
(Time-resolved FRET reads energy transfer from a long-lived donor to a nearby acceptor.)

A further test concerns the target T1, ULK2 (Homo sapiens, UniProt Q8IYT8).
T1 sequence (Q8IYT8 1-1036): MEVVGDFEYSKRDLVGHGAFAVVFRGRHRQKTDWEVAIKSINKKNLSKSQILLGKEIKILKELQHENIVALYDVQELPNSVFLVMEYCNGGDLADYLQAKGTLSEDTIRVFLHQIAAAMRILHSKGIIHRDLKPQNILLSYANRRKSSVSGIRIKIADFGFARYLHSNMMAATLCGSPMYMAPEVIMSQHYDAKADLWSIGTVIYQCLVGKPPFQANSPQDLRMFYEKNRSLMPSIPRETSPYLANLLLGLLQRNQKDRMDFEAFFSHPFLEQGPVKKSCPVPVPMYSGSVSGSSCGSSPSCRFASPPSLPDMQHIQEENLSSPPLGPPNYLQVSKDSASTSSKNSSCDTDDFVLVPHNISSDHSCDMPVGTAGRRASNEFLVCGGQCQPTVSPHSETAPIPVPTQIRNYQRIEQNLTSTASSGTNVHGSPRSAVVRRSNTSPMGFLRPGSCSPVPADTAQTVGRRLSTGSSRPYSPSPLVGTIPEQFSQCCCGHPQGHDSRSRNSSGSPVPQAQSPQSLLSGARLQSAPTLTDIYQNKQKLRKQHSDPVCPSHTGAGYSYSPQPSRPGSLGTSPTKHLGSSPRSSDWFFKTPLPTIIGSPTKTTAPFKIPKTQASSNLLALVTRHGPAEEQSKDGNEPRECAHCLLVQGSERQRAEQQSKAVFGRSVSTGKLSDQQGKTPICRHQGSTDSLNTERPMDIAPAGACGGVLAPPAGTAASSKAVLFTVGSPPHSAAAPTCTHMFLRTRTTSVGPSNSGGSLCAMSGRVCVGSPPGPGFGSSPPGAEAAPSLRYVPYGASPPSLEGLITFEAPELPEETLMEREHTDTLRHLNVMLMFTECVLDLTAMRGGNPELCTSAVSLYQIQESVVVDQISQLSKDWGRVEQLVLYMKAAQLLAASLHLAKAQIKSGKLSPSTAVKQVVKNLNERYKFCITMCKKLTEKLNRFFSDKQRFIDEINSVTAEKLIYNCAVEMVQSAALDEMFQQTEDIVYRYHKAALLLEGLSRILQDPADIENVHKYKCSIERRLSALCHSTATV
As to the kind of experiment: SelectScreen LanthaScreen Binding. The conditions noted are these: 1000 nM. Put shortly: as §1

Test [1] deals with 133 protein kinases and 7 lipid kinases. As to the kind of experiment: SelectScreen kinase profiling, whole panel. Type of test: biochemical. As to conditions: 1 μM of 1938. The method, then:
133 protein kinases and 7 lipid kinases were counterscreened, with 1938 used at 1 μM, using the Adapta, Lantha and Z-LYTE assays (SelectScreen Kinase Profiling Service; Thermofisher – experimental details of these assays can be found here: https://www.thermofisher.com/uk/en/home/industrial/pharma-biopharma/drug-discovery-development/target-and-lead-identification-and-validation/kinasebiology/kinase-activity-assays.html. The tree represention in KinMap[59] generated courtesy of Cell Signaling Technology, Inc. (www.cellsignal.com). mTORC1 (mTOR/RAPTOR/LST8) protein complex and ATM kinase and substrates were produced as previously described[57],[60]. Screening of 1938 was conducted using SuperSep Phos-Tag 50 μmol/l 100 x 100 x 6.6 mm 17-well (192-18001/199-18011) gels. For ATM assays, 100 nM ATM was incubated for 30 min at 30°C with 5 μM GST-p53 and 1 mM ATP, in the absence or presence of 200 μM 1938 in ATM Kinase Buffer (50 mM HEPES pH 7.5, 100 mM NaCl, 10% glycerol, 2 mM […], 5 mM MgCl2). As a positive control for ATM activation, the same reaction was carried out with 100 nM ATM/5 μM GST-p53/1 mM ATP in the presence of 100 nM Mre11-Rad50-Nbs1 (MRN) complex, a known activator of ATM[61]. […] Gels were then stained using InstantBlue™ Coomassie, and quantified using BioRad Image Lab Software. […]

Chain of AAK1 (Q2M2I8 whole entry): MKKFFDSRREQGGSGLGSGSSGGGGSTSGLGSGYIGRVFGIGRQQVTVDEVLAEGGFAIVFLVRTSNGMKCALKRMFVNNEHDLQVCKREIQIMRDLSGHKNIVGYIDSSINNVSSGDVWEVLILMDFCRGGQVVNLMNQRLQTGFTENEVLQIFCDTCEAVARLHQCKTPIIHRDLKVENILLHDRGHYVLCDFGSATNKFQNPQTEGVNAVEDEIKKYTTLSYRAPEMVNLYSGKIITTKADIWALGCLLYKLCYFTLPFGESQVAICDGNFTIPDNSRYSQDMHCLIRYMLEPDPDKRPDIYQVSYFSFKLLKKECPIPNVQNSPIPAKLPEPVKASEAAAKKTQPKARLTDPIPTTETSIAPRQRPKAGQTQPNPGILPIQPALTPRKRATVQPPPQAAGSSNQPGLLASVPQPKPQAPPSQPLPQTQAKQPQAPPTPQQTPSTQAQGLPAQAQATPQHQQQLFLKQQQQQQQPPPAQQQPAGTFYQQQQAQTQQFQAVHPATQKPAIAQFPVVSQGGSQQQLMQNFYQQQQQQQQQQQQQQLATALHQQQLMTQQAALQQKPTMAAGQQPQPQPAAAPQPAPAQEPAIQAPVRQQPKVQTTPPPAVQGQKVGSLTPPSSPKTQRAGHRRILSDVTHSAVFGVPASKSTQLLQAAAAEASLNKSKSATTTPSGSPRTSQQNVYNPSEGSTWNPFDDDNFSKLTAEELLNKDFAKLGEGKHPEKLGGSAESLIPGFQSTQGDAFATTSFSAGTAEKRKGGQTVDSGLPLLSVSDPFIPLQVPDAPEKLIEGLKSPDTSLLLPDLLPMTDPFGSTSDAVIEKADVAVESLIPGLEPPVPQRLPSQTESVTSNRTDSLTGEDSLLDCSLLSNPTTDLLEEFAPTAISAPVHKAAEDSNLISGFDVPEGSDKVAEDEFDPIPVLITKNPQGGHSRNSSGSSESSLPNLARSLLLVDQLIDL

With `CCN1CCN(c2ccc(Nc3cc(Nc4cccc5c4N(C(C)=O)CC5)ccn3)cc2)CC1` [Compound 1938], the “pAKT^S473 generation” value in the test with A549 cells is on record as ~ 200 % of Emax of 1 μM insulin. At AAK1, the “% Displacement Point 1” value was 26%, the “% Displacement Point 2” value is 25% and the “% Displacement mean” value worked out at 25%. On ULK2, the “% Displacement Point 1” value was found to be 3%, the “% Displacement Point 2” value is recorded as -0.488% and the “% Displacement mean” value was found to be 1.23%. For the same molecule, in test [1], the “effect on PI3Kβ, PI3Kγ, PI3Kδ, PI3K-C2α, Vps34, PI4Kβ, mTOR and DNA-PK” value was “did not affect the activity”; the “inhibition of 13 protein kinases of the panel” value is on record as 25-50%.
